Experimental data: ChEMBL document CHEMBL1255189, “Structural basis for binding of cyclic 2-oxoglutarate analogues to factor-inhibiting hypoxia-inducible factor” (Bioorg Med Chem Lett, 2010)
Activity calls are given as the source filed them. The rule behind the calls is not given here.

Key:
[1] = biological target: Egl nine homolog 1 (Homo sapiens) (UniProt Q9GZT9); test: Inhibition of PHD2 at 1 mM by HTRF assay
[2] = biological target: Prolyl hydroxylase EGLN2 (Homo sapiens, UniProt Q96KS0); test: Inhibition of PHD1 by HTRF assay
Prolyl hydroxylase EGLN2, sequence (Q96KS0 whole entry): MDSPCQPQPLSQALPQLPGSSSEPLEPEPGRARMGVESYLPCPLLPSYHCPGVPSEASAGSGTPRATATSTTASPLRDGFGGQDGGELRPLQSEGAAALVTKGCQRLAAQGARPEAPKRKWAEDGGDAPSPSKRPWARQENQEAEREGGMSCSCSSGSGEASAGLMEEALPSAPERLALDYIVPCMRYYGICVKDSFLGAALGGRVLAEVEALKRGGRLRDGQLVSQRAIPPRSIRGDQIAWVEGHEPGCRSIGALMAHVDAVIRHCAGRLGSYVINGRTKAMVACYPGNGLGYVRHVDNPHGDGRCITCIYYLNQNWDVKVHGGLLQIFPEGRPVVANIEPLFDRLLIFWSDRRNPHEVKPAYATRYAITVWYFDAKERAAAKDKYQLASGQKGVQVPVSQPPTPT

[3] = Inhibition of FIH by HTRF assay

Egl nine homolog 1 (Homo sapiens), sequence (Q9GZT9 2-426 limits assumed): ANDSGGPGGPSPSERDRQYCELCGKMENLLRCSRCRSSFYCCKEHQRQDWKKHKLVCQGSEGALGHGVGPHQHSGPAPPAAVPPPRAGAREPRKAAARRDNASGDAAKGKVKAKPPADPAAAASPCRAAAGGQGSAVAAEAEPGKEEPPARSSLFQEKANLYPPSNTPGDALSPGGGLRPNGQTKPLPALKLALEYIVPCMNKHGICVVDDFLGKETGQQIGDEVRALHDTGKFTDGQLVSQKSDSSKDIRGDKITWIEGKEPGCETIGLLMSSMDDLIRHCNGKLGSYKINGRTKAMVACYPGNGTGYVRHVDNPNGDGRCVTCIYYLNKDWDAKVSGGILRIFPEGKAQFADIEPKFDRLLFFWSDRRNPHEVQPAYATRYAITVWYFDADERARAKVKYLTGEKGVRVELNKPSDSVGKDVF

Row | SMILES | inhibition [1] | IC50 [2] | inhibition [3]
1 | O=C(O)C(=O)c1cccc(O)c1 | inactive | > 1000 µM | 
2 | O=C(NO)c1cccc(O)c1 | inactive |  | 
3 | O=C(O)CNC(=O)c1ccccc1O [SALICYLURIC ACID] |  | > 1000 µM | 
4 | O=C(O)c1ccnc(C(=O)O)c1 | inactive | 625 µM | Active
5 | O=C(O)CNC(=O)c1ncccc1O | inactive | 91.1 µM | 
6 | O=C(O)C(S)c1cccc(O)c1 (stereo not drawn) | inactive | 500 µM | 
7 | O=C(O)CNC(=O)c1ccccn1 | inactive | > 1000 µM | 
